Legend:
FXR = molecular target: T1, FXR (Homo sapiens, UniProt Q96RI1); experiment: AlphaScreen corepressor NCoR-2 recruitment assay; assay type: biochemical; conditions: Figure 1I
T1 sequence (Q96RI1 243-472 isoform Q96RI1-2): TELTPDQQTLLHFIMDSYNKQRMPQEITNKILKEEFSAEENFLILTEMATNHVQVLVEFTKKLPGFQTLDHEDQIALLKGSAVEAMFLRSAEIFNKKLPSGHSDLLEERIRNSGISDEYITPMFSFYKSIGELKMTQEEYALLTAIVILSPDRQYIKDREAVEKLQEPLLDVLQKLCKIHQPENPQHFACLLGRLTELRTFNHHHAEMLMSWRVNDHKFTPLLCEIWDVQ

[1] = system: BDL-induced liver injury in mice; experiment: Bile duct ligation; assay type: in vivo
[2] = system: inflammation, fibrosis and FXR target genes in liver; experiment: Liver mRNA levels by qPCR in BDL mice; assay type: in vivo
[3] = 3 mg/kg p.o. once daily day 7 to 14 after BDL

binding affinity between FXR and NCoR2 (FXR): decreased the binding affinity
Compound: CC[C@H]1[C@@H](O)[C@@H]2[C@H](CC[C@]3(C)[C@@H]([C@H](C)CCC(=O)O)CC[C@@H]23)[C@@]2(C)CC[C@@H](O)C[C@@H]12 [OCA, Obeticholic acid]
collagen deposition (Sirius red) compared to the vehicle group [1, 3]: smaller amount
inflammatory infiltrates (H&E) compared to the vehicle group [1, 3]: lower level
BDL-induced increase in total bilirubin level in the serum ([1]; once daily day 7 to 14 after BDL): reversed
liver mRNA expression of inflammatory biomarkers IL-6, IL-1β, iNOS, COX2 [2]: significantly decreased

Reference: paper PMC9795464 (JACS Au, 2022)
